How the values were obtained:
MAP2K1 = MAP2K1 (Homo sapiens, UniProt Q02750); assay: Other kinase MSA: MAP2K1; format: biochemical; details: 25 μM ATP, ERKtide substrate; pre-activation of ERK 30 min, detection after 60 minutes; read-out: IC50, Enzyme MAP2K1
Protocol: Kinase activity, unless otherwise indicated, was measured in vitro using an electrophoretic mobility shift assay (MSA). The phosphorylation of a peptide substrate by BTK and other kinases was measured. The kinase reactions were assembled in a total volume of 25 μL per well in 384 well plates. The following was added to each well: compound buffer (or control); enzyme buffer; and substrate buffer, as further described below. […]
(§1) Enzyme and compound/inhibitor were optionally pre-incubated. […] The kinase activity for the kinases in Table 3 were measured at 3 hours incubation time, except that in the case of MAP2K1 and MAP2K2 assay, pre-activation of ERK was done for 30 min with 6 μM of ATP, and then the detection of activated ERK in the presence of compounds was done after 60 minutes of incubation.
The terminated reactions were analyzed using a 12 channel LABCHIP® 3000 microfluidic detection instrument (available from Caliper Life Sciences, Waltham, Mass.). […] As substrate and product peptides were separated, two peaks of fluorescence were observed. Change in the relative fluorescence intensity of the substrate and product peaks was the parameter measured, reflecting enzyme activity. […] Capillary electrophoregrams (RDA acquisition files) were analyzed using HTS Well Analyzer software (available from Caliper Life Sciences, Waltham, Mass.). […]

EGFR = EGFR (Homo sapiens, UniProt P00533); assay: Other kinase MSA: EGFR; format: biochemical; details: 5 μM ATP, CSKtide substrate, 3 hours; read-out: IC50, Enzyme EGFR
Chain of EGFR (P00533 25-1210, species assumed): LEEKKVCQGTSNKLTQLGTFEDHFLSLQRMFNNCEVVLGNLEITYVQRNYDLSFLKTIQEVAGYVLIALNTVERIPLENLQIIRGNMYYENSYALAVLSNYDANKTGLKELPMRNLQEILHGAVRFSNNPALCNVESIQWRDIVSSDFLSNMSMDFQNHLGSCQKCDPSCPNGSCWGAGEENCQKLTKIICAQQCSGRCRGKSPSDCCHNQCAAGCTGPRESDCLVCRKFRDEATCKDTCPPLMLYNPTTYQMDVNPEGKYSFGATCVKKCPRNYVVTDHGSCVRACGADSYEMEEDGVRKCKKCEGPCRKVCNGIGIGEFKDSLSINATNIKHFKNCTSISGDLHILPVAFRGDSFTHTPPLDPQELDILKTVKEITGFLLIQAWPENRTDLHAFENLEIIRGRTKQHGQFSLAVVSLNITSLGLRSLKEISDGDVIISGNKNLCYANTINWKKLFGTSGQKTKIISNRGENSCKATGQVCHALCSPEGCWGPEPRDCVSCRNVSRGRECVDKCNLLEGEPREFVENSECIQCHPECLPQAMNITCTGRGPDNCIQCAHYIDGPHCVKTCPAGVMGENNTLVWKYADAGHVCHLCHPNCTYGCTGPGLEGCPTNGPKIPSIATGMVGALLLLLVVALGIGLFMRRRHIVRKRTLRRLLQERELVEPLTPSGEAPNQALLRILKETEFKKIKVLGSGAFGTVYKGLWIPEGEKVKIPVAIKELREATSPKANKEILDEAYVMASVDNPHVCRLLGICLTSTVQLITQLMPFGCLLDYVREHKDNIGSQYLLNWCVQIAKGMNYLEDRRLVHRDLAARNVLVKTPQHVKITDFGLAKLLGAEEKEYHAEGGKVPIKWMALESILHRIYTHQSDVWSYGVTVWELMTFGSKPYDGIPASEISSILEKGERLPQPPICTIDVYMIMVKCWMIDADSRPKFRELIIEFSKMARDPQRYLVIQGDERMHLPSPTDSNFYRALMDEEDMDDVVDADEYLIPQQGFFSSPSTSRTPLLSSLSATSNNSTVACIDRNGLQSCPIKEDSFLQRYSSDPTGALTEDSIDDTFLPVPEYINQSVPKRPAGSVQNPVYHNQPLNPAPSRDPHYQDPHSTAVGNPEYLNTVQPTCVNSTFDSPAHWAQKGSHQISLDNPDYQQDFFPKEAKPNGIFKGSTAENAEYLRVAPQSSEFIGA
Protocol: Kinase activity, unless otherwise indicated, was measured in vitro using an electrophoretic mobility shift assay (MSA). The phosphorylation of a peptide substrate by BTK and other kinases was measured. The kinase reactions were assembled in a total volume of 25 μL per well in 384 well plates. The following was added to each well: compound buffer (or control); enzyme buffer; and substrate buffer, as further described below.
as §1, with “pre-incubated. To each well was added: 8 μL of 2.5×ATP and substrate in 1× Master Buffer (1× Master Buffer as described above). The plate was incubated at room temperature for 3 hours. […] OG488 was Oregon Green dye, which was conjugated to the peptide substrate.” for “pre-incubated.”
The terminated reactions were analyzed using a 12 channel LABCHIP® 3000 microfluidic detection instrument (available from Caliper Life Sciences, Waltham, Mass.). […] Change in the relative fluorescence intensity of the substrate and product peaks was the parameter measured, reflecting enzyme activity. […]

Chain of MAP2K1 (Q02750 whole entry, species assumed): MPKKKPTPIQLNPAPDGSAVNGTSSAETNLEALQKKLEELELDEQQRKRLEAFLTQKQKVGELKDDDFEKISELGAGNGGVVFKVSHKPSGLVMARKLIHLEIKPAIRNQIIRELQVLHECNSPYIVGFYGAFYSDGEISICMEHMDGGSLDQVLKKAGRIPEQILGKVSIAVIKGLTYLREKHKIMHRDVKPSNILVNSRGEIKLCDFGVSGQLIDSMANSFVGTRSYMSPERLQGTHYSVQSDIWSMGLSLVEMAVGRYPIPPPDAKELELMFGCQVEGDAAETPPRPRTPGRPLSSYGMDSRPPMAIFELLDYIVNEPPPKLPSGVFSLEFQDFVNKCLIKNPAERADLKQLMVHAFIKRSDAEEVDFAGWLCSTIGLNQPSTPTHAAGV

IC50 (MAP2K1)	IC50 (EGFR)	SMILES
41.3 nM		C=CC(=O)N1CCC([C@@H]2CCNc3c(C(N)=O)c(-c4ccc(Oc5ccccc5)cc4)nn32)CC1 [Compound A, reference compound]
	844 nM	C=CC(=O)N1CCN([C@@H]2CCNc3c2nn(-c2ccc(Oc4ccccc4)cc2)c3C(N)=O)CC1 [Example 6, (7R)-2-(4-phenoxyphenyl)-7-[4-(prop-2-enoyl)piperazin-1-yl]-4,5,6,7-tetrahydro-2H-pyrazolo[4,3-b]pyridine-3-carboxamide]
